Laboratory results reported in patent US20110039873A1, “SUBSTITUTED PYRAZOLO[1,5-a] PYRIDINE COMPOUNDS HAVING MULTI-TARGET ACTIVITY” (priority 2009, published 2011).

Test system: 6-OHDA lesioned rats
Experiment: 6-OHDA (Parkinson's) model, apomorphine induced rotations
Assay type: in vivo, rat
Settings: 50 mg/kg PO once daily, after 7 days; control 444, baseline 315
Description: AV1173 was evaluated in a 6-OHDA lesioned rats, a standard rat model of Parkinson's disease. (See, e.g., Ungerstedt, U. “6-hydroxydopamine induced degeneration of monoamine neurons.” Eur. J. Pharm. 5: 107-110, 1968; Garvey P M, et al., “Injection of biologically relevant active substances into the brain.” Methods in Neurosciences. 21: 214-234, 1994).
Pre-lesioned rats were purchased from a vendor (Taconic) following stereotaxic injection into the brain of the neurotoxin 6-hydroxydopamine (6-OHDA), which leads to neuronal cell loss in those brain regions affected in PD (in particular the substantia nigra). Briefly, anesthetized rats were injected with […] of 6-OHDA using stereotaxic coordinates to locate the needle within the nigrostatial pathway. A 2 ug/uL solution of 6-OHDA was infused at a rate of 1 ul/min for four minutes. […] On […] post-injection, rats began a once-daily oral regimen of AV1173 (50 mg/kg PO). Rats were assessed for rotational behavior following 0.5 mg/kg apomorphine challenge, one week from the initiation of dosing (Day 17 post-6-OHDA injection).

CC(C)Nc1nccc(-c2c(C3CC3)nn3ccccc23)n1 [AV1173, 4-(2-cyclopropylpyrazolo[1,5-a]pyridin-3-yl)-N-isopropylpyrimidin-2-amine]
average number of apomorphine induced rotations in 30 minutes: 354
